In publication PMC9322122, “Development of (4-Phenylamino)quinazoline Alkylthiourea Derivatives as Novel NF-κB Inhibitors” (Pharmaceuticals, 2022):

Assays:
[1] = Cell viability (WST-1), HEK293; assay type: cell-based; conditions: human, HEK293 cells, mean ± SEM, n = 3
Experimental: Cells were incubated with the WST-1 reagent (Thermo Fisher Scientific, Waltham, MA, USA) at 37 °C for 2 h. The cell viability was determined by spectrophotometer at 450 nm.

[2] = target: Recombinant EGFR kinase (Homo sapiens, UniProt P00533); test: Recombinant EGFR kinase activity; assay type: biochemical; conditions: read-out: Recombinant EGFR Kinase Activity (%inh at 150 nM)
[3] = tested on: TNFα production; test: TNFα production in LPS-activated dTHP-1 cells (ELISA); assay type: cell-based; conditions: Homo sapiens
Experimental: (§1) The HEK-293 (ATCC Cat# CRL-1573, RRID:CVCL_0045) and human monocytic THP−1 cells (ATCC Cat# TIB-202, RRID:CVCL_0006) were, respectively, cultured in DMEM and RPMI 1640 media supplemented with 10% fetal bovine serum, 2 mM L-glutamine, and 1× Antibiotic-Antimycotic at 37 °C in a humidified incubator with 5% CO2. THP−1 cells were differentiated by 100 nM phorbol-12-myristate-13-acetate (PMA) for 4 h and then rested for 44 h as dTHP−1 cells.
(§2) The dTHP−1 cells were treated with indicated compounds for 3 h and then activated with or without 100 ng/mL lipopolysaccharide (LPS; E. coli 0111:B4) for another 24 h. The levels of human IL-6 and TNFα in supernatants were measured by DuoSet® ELISA Development System (R&D systems, Minneapolis, MN, USA) according to the manufacturer’s protocol.

[4] = tested on: IL-6 production; test: IL-6 production in LPS-activated dTHP-1 cells (ELISA); assay type: cell-based, human; conditions: Homo sapiens
Experimental: as §1, §2

[5] = tested on: phospho-NF-κB p65 (S468); test: Western blot phospho-NF-κB p65 (S468) in dTHP-1 cells; assay type: cell-based, human; conditions: 7.5 µM; LPS-stimulated dTHP-1 cells
Experimental: (§3) Cells were lysed in the commercial RIPA Buffer (Thermo Fisher Scientific, Waltham, MA, USA) and then centrifuged at 14,000× g for 20 min. […] Antibodies used in this study were phospho-NF-κB p65 (S468; catalog no. 3039), phospho-NF-κB p65 (S536; catalog no. 3033), phospho-IKKα/β (catalog no. 2697), and IκB (catalog no. 9242) from Cell Signaling Technology (Beverly, MA, USA); GAPDH from ABclonal (catalog no. A10868; Woburn, MA, USA). The labeled signals were determined using an enhanced chemiluminescence system (UVP, Upland, CA, USA). The experiments were performed at least two times in triplicate, providing basically the same results.
The dTHP−1 cells were incubated with DMSO (0.1%), 19 (7.5 µM), or CAPE (10 µM) in medium for 3 h and then stimulated with or without LPS (0.1 µg/mL) for another 30 min. (A) Nuclear translocation of NF-κB p65 (green) was determined by immunofluorescent microscopy. Hoechst (blue) was used for nuclei staining. (B) The nuclear NF-κB p65-positive cells were quantified. (C) The levels of phospho-NF-κB p65 (S468), IκB, and GAPDH were determined by Western blot. (D) The normalized phospho-NF-κB p65 (S468) and IκB levels were quantified. All data are expressed as mean ± SEM (n = 3); ** p < 0.01 and *** p < 0.001 compared with the DMSO + LPS group.

[6] = tested on: phospho-NF-κB p65 (S536); test: Western blot phospho-NF-κB p65 (S536) in dTHP-1 cells; assay type: cell-based, human; conditions: 7.5 µM; LPS-stimulated dTHP-1 cells
Experimental: as §3
The dTHP−1 cells were incubated with DMSO (0.1%), 19 (7.5 µM), or CAPE (10 µM) in medium for 3 h and then stimulated with or without LPS (0.1 µg/mL) for another 30 min. (A) The levels of phospho-NF-κB p65 (S536), phospho-IKKα/β, IκB, and GAPDH were determined by Western blot. The normalized (B) phospho-NF-κB p65 (S536), (C) phospho-IKKα/β, and (D) IκB levels were quantified. All data are expressed as mean ± SEM (n = 3); * p < 0.05 compared with the DMSO + LPS group.

[7] = target: T1, GSK3B (GSK3 beta) (Homo sapiens, UniProt P49841); test: Kinase selectivity profiling (Thermo Fisher); assay type: biochemical; conditions: ATP 100 μM, mean of duplicates
T1 construct: purchased Thermo Fisher Scientific (screening service)
Experimental: (§4) Tabl e S1. Selectivity profiling of compound 19 ag ainst the protein kinases known to regulate the NF-kB pathway ki nase % Inhibiti on at 2 µMa […]
(§5) aScreenings were perf or med as a servi ce at Thermo Fisher Scientific at an ATP concentrat ion of 100 μM. n.i., no inhi biti on. Data represent mean values of duplicat es that differed by less t han 7%.

[8] = target: T2, IKBKB (IKK beta) (Homo sapiens, UniProt O14920); test: Kinase selectivity profiling (Thermo Fisher); assay type: biochemical; conditions: ATP 100 μM, mean of duplicates
T2 construct: purchased Thermo Fisher Scientific (screening service)
Experimental: as §4, §5

[9] = target: T3, IKBKE (IKK epsilon) (Homo sapiens, UniProt Q14164); test: Kinase selectivity profiling (Thermo Fisher); assay type: biochemical; conditions: ATP 100 μM, mean of duplicates
T3 construct: purchased Thermo Fisher Scientific (screening service)
Experimental: as §4, §5

[10] = target: T4, IRAK1 (Homo sapiens, UniProt P51617); test: Kinase selectivity profiling (Thermo Fisher); assay type: biochemical; conditions: ATP 100 μM, mean of duplicates
T4 construct: purchased Thermo Fisher Scientific (screening service)
Experimental: as §4, §5

[11] = target: T5, MAP3K14 (NIK) (Homo sapiens, UniProt Q99558); test: Kinase selectivity profiling (Thermo Fisher); assay type: biochemical; conditions: ATP 100 μM, mean of duplicates
T5 construct: purchased Thermo Fisher Scientific (screening service)
Experimental: as §4, §5

[12] = target: T6, MAP3K7/MAP3K7IP1 (TAK1-TAB1) (Homo sapiens, UniProt O43318); test: Kinase selectivity profiling (Thermo Fisher); assay type: biochemical; conditions: ATP 100 μM, mean of duplicates
T6 construct: purchased Thermo Fisher Scientific (screening service)
Experimental: as §4, §5

[13] = target: T7, MAPK14 (p38 alpha) (Homo sapiens, UniProt Q16539); test: Kinase selectivity profiling (Thermo Fisher); assay type: biochemical; conditions: ATP 100 μM, mean of duplicates
T7 construct: purchased Thermo Fisher Scientific (screening service)
Experimental: as §4, §5

[14] = target: T8, MAPK3 (ERK1) (Homo sapiens, UniProt P27361); test: Kinase selectivity profiling (Thermo Fisher); assay type: biochemical; conditions: ATP 100 μM, mean of duplicates
T8 construct: purchased Thermo Fisher Scientific (screening service)
Experimental: as §4, §5

[15] = target: T9, PRKCZ (PKC zeta) (Homo sapiens, UniProt Q05513); test: Kinase selectivity profiling (Thermo Fisher); assay type: biochemical; conditions: ATP 100 μM, mean of duplicates
T9 construct: purchased Thermo Fisher Scientific (screening service)
Experimental: as §4, §5

[16] = target: T10, RPS6KA1 (RSK1) (Homo sapiens, UniProt Q15418); test: Kinase selectivity profiling (Thermo Fisher); assay type: biochemical; conditions: ATP 100 μM, mean of duplicates
T10 construct: purchased Thermo Fisher Scientific (screening service)
Experimental: as §4, §5

[17] = target: T11, TBK1 (Homo sapiens, UniProt Q9UHD2); test: Kinase selectivity profiling (Thermo Fisher); assay type: biochemical; conditions: ATP 100 μM, mean of duplicates
T11 construct: purchased Thermo Fisher Scientific (screening service)
Experimental: as §4, §5

[18] = LPS-activated dTHP-1 cells, 24 h

T9 sequence (Q05513 whole entry): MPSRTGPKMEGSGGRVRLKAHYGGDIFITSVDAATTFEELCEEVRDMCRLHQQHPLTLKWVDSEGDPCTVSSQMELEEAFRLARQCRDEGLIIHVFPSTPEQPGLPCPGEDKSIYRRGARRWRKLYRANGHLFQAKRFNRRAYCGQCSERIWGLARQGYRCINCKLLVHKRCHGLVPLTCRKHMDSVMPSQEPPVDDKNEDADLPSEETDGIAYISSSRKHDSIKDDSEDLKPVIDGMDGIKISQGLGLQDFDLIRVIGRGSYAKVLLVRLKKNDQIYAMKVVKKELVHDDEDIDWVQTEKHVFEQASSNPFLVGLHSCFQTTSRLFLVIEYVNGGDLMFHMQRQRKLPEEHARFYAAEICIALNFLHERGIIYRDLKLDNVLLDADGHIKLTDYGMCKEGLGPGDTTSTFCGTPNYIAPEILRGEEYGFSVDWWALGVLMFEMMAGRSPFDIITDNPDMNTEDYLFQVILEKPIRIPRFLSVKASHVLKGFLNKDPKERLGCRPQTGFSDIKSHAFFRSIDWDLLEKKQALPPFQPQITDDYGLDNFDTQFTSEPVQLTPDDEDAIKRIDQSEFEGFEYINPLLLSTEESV
T5 sequence (Q99558 whole entry): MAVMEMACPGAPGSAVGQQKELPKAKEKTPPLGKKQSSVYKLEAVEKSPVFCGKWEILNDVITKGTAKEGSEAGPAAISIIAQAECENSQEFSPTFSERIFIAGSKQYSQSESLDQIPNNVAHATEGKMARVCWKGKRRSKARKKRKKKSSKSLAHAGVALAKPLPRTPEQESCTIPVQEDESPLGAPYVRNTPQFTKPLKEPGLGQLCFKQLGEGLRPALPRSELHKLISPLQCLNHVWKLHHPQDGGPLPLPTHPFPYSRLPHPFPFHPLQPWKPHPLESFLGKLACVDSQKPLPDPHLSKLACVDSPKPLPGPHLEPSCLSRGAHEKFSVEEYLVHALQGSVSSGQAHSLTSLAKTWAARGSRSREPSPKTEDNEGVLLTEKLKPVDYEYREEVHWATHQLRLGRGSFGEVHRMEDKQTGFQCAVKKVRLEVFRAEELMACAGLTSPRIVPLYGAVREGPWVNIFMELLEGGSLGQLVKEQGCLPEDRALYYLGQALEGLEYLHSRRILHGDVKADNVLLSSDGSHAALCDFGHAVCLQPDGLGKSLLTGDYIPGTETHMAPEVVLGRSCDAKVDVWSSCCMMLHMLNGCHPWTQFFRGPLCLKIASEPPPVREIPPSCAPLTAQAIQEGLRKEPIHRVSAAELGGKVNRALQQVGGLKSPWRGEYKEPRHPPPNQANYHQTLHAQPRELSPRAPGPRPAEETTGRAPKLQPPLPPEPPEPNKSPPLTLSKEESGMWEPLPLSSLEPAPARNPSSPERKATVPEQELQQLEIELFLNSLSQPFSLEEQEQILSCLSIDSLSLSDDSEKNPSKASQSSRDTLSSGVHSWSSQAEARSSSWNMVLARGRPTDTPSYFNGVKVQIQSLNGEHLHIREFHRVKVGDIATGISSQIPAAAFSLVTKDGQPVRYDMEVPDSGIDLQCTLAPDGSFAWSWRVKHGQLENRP
T11 sequence (Q9UHD2 whole entry): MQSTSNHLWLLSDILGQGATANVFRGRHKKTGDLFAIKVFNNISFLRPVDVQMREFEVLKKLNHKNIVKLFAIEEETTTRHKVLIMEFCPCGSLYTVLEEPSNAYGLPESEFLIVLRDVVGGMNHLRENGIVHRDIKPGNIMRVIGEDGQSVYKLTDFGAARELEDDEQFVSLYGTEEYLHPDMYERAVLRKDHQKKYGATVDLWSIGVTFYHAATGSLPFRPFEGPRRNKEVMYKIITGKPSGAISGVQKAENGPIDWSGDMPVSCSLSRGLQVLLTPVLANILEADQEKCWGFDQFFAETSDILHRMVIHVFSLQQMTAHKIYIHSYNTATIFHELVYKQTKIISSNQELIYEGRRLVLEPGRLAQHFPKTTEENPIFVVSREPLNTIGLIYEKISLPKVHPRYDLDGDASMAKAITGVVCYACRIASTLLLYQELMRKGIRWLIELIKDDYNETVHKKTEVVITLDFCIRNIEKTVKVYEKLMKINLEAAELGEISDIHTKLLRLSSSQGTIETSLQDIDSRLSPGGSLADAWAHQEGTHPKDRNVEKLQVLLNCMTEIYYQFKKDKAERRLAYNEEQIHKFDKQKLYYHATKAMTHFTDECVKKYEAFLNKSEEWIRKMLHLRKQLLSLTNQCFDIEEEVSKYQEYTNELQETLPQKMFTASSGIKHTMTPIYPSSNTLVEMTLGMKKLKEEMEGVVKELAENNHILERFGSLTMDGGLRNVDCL
T8 sequence (P27361 whole entry): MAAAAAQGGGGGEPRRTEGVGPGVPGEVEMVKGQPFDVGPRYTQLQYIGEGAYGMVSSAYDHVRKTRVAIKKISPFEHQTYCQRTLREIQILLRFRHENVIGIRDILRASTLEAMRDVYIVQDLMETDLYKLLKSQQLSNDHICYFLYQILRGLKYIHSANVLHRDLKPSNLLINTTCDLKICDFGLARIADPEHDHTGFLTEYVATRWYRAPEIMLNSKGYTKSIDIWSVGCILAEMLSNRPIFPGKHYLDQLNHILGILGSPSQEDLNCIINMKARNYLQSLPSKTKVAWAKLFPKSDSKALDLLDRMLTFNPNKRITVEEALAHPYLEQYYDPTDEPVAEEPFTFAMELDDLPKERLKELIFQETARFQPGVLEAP
T3 sequence (Q14164 whole entry): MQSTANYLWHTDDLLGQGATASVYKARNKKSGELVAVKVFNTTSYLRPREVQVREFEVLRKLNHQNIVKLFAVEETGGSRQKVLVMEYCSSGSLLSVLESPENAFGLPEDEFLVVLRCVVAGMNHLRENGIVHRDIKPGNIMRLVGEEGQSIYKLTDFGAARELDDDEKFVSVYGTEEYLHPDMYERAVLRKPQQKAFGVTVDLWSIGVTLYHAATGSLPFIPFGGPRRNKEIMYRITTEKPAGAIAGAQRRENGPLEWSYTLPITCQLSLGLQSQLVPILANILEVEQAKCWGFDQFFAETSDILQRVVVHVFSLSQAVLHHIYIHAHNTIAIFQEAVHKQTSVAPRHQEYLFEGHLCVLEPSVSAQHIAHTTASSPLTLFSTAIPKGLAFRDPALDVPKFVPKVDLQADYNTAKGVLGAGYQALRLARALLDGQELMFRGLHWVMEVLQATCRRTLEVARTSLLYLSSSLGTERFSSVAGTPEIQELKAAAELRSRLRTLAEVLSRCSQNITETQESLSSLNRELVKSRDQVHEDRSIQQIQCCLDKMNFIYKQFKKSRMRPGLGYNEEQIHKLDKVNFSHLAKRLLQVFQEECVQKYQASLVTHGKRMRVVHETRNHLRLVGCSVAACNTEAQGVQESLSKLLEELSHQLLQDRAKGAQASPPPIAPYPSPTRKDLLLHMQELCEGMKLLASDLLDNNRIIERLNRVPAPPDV
T6 sequence (O43318 with tags, fused parts or gaps limits assumed): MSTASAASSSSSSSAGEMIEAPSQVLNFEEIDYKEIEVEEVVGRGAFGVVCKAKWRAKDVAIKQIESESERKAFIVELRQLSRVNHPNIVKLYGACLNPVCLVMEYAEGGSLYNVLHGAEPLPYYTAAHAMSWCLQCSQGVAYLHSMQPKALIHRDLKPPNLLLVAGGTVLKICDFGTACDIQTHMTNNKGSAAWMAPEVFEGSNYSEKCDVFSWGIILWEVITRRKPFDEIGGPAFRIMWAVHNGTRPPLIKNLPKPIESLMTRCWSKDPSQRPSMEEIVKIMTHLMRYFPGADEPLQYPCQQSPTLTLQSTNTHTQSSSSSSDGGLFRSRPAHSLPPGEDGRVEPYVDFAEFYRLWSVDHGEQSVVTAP
T7 sequence (Q16539 whole entry): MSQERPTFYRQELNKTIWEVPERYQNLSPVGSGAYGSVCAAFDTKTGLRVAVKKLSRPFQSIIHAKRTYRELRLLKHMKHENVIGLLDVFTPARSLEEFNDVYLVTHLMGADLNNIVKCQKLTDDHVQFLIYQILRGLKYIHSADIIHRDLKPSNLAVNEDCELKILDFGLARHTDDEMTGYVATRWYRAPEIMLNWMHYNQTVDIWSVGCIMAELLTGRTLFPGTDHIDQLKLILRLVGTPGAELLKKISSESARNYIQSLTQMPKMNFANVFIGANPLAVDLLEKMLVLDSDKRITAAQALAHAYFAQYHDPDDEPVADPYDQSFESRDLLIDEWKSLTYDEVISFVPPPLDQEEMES
T10 sequence (Q15418 whole entry): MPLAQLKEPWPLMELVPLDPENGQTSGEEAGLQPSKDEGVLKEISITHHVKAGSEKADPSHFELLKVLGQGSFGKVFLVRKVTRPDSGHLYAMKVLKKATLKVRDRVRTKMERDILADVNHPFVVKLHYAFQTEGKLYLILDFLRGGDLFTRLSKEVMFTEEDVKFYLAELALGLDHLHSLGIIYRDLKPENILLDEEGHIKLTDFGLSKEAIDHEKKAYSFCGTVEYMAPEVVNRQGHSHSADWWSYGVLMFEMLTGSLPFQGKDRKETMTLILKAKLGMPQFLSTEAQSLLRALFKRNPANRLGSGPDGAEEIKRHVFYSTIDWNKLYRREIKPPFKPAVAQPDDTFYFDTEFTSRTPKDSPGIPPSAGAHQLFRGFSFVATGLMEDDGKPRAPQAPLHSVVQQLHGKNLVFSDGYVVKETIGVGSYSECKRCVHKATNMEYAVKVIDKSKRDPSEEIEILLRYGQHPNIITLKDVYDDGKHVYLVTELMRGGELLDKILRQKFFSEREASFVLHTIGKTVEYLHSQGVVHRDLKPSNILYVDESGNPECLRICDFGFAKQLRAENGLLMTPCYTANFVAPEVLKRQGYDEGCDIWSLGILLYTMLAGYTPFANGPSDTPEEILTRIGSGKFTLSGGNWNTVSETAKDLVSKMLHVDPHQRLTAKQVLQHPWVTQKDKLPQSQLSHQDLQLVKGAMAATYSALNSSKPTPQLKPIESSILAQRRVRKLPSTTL

inhibition at 0.15 µM [2]: 23%
IC50 [3, 18]: 4000 ± 200 nM
IC50 [4, 18]: 840 ± 120 nM
inhibition at 2 µM [7]: 4%
inhibition at 2 µM [8]: 3%
inhibition at 2 µM [9]: 3%
inhibition at 2 µM [10]: 2%
inhibition at 2 µM [11]: 9%
inhibition at 2 µM [12]: 3%
inhibition at 2 µM [13]: 4%
inhibition at 2 µM [14]: 2%
inhibition at 2 µM [15]: 3%
inhibition at 2 µM [16]: 1%
inhibition at 2 µM [17]: 8%
melting point: 229.1 to 231.6 °C
SMILES: S=C(Nc1ccc2ncnc(Nc3cccc(Cl)c3)c2c1)NC1CCCC1 [Compound 19, 1-(4-((3-Chlorophenyl)amino)quinazolin-6-yl)-3-cyclopentylthiourea]
viability at 10 µM [1]: 118 ± 11.4%
inhibition at 7.5 µM ([3]; 7.5 μM, LPS 100 ng/mL for 24 h, dTHP-1 cells, read-out: TNFα Production Inh % (7.5 μM)): 82.5 ± 5.6%
inhibition at 15 µM ([3]; 15 μM, LPS 100 ng/mL for 24 h, dTHP-1 cells, read-out: TNFα Production Inh % (15 μM)): 91.5 ± 2.5%
inhibition at 7.5 µM ([4]; 7.5 μM, LPS 100 ng/mL for 24 h, dTHP-1 cells, read-out: IL-6 Production Inh % (7.5 μM)): 92.7 ± 5.5%
inhibition at 15 µM ([4]; 15 μM, LPS 100 ng/mL for 24 h, dTHP-1 cells, read-out: IL-6 Production Inh % (15 μM)): 98.3 ± 0.28%
Phosphorylation of p65-Ser468 [5]: significantly diminished phosphorylation of p65-Ser468
Phosphorylation of p65 at Ser536 [6]: not affected
